In patent publication US20060206946A1, “Method of disrupting heme transport in nematodes and of modelling and evaluating eukaryotic heme transport” (priority 2005, published 2006):

Tests used:
[1] = system: C. elegans genes transcriptionally regulated by heme; experiment: Affymetrix C. elegans Genome Array: genes transcriptionally regulated by heme (4 and 500 μM vs 20 μM hemin); assay type: in vivo, Caenorhabditis elegans; details: low heme (4 μM)
Protocol: Worms were grown at 4 μM (low) 20 μM (optimal) and 500 μM (high) hemin in axenic CeHR medium. We chose 4 and 500 μM hemin because these heme concentrations were at either end of the worm growth spectrum, and worms at these heme concentrations show a ˜24 h growth delay compared to worms grown at 20 μM hemin. […] In order to eliminate maternal effect genes, wild-type N2 worms were grown for two synchronized generations in their respective hemin concentrations to obtain F2 worms at the […] as determined by morphological analysis of the vulva. F2 worms from all three heme conditions were harvested at the same mid-L4 stage for final RNA extraction. The RNA was extracted with Trizol and treated with RNase-free DNase to remove any contaminating DNA followed by a purification on a Qiagen RNeasy column. Each experiment was performed four independent times on four separate days to ensure proper sampling and to account for experimental variations. […]
From these genes, 58 genes were excluded because they were specific to germline, sperm or oocyte development, as determined by cross-checking with publicly available microarray databases. […]
The initial statistical analysis of the Affymetrix genome array was performed at the NIDDK microarray facility using Affymetrix MAS 5.0 Suite software. […] The standard error for ΔΔCt will be calculated by the method of Livak and Schmittgen. […]

[2] = system: C. elegans wild-type N2 strain; experiment: Worm culture and growth assay in axenic CeHR/mCeHR liquid medium; assay type: in vivo; design: key to Growth 1.6 μM hemin / Growth 0.5 μM GaPP: + = wild type equivalent In growth; ND: No growth
Protocol: (D) Biphasic response of C. elegans cultured in the presence of increasing amounts of hemin chloride (μM). Equal numbers of synchronized L1 larvae were grown in 24-well plates in mCeHR medium for 9 days and quantified (worms/μl) by microscopy. Each data point represents the mean±SD from three separate experiments performed in triplicate.
(A) Aerobic growth of C. elegans in mCeFIR medium with 20 μM hemin supplemented with either gallium protoporphyrin IX (GaPP) or gallium salts. Synchronized L1 larvae were grown for 9 days in 24-well plates and quantified (worms/μl) by microscopy. Each data point represents the mean from a single experiment, and each experiment was performed in triplicate. Inset depicts the GaPP analysis at lower concentrations for clarity.
(B) Effect of heme on the cytotoxicity of GaPP. Synchronized L1 larvae were inoculated in 24-well plates containing mCeHR medium with either 0, 2, 4, or 6 μM GaPP and increasing hemin (μM). The number of worms per μl was measured on day 9 and the data are presented as mean±SD.
FIG. 9 depicts worm utilization of heme-iron under iron deprivation. Equal numbers of synchronized L1 larvae were grown in the presence of 4, 20, and 100 μM hemin, either in basal mCeHR medium (set 1), or basal medium lacking exogenous iron (set 2), or as set 2 with 1 μM of the iron chelator ferrozine (set 3), or as set 3 with 486 μM ferrous ammonium sulfate (set 4). These values of ferrozine and iron were empirically determined by performing dose-response experiments and analyzing worm growth. The number of worms per μl was measured on day 9 and the data presented as mean±SD performed in triplicate. P<0.001 between sets 1 and 3.
To qualitatively and quantitatively determine the heme requirement of C. elegans, we assessed growth at various heme concentrations. Equal numbers of L1 larvae were inoculated in CeHR medium with either no cytochrome c and hemin, or with cytochrome c and increasing amounts of hemin (FIG. 4A). The effect of hemin became apparent within 48 hours and by 9 days, the heme-deplete worms were severely growth retarded at the L1/L2 stages. […] However, this stimulatory effect of heme was toxic to worms grown at heme concentrations >750 μM. To quantitatively assess the effect of heme on worms, we counted the number of live worms grown under different concentration of heme using DIC microscopy. […] On the basis of this association between heme and the growth and reproduction of C. elegans, we conclude that the biphasic nature of heme is likely due to the need for heme under heme-deprived conditions to perform essential metabolic functions, and the lethality of heme at high concentrations can be attributed to its cytotoxic activity.
Worm Culture and Growth Assays. Free-living worms were cultured in CeHR axenic liquid medium (Dr. Eric Clegg, Personal Communication). […] CeHR medium was modified (henceforth called mCeHR) to eliminate all sources of exogenously added heme; basal growth medium comprised 20 μM hemin chloride (Frontier Scientific, Logan, Utah) and 150 μM of ferrous ammonium sulfate (Sigma Chemicals). Worm strains were grown in mCeHR medium under aerobic conditions in tissue culture flasks at 20° C. ˜3.7×10^6 worms were routinely obtained after 3.5 to 4 days in a T75 flask with 30 ml basal medium from an initial inoculum of −1.5×10^5 worms. For initial culturing of worms in axenic media, three generations of worms were sequentially bleached (1.1% bleach/0.55 M NaOH) to eliminate any contaminating bacterial carryover from agar plates. In all dose-response experiments, worms were growth synchronized by treating the gravid hermaphrodite worms with bleach to dissolve adult worms. The eggs, resistant to bleach, were liberated from the carcasses and extensively washed with M9 buffer followed by overnight hatching in M9 buffer to synchronize growth. By harvesting at appropriate time intervals, synchronous larval stages and adult staged worms were collected for experimental manipulations. […]

## hemin chloride
[1]
  upregulation of R02E12.6 in microarrays: 16 fold
[2]; 4 and 500 μM hemin
  growth delay compared to worms grown at 20 μM hemin: ~24 h
[2]; 20 and 100 μM hemin, with ferrozine, P<0.001
  effect on growth under iron deprivation: attenuated the growth retarding effects of iron deprivation
[2]; CeHR medium
  heme concentrations toxic to worms: > 750 µM
[2]; CeHR medium with cytochrome c, L1 larvae inoculum
  hemin concentration at which maximum growth was achieved: 10 µM
[2]; Control Wild-type (N2)
  Growth 1.6 μM hemin: +
[2]; Control Wild-type (N2), 20 μM hemin
  Generation time (Days) 20 μM: 3.5 days
[2]; Control Wild-type (N2), 20 μM hemin, average in 24 well plates
  brood size 20 μM: 62.3
[2]; Control Wild-type (N2), 800 μM hemin
  Generation time (Days) 800 μM: >16 days
[2]; in vivo
  sensitivity to heme in liquid medium versus heme plates: 10 times
[2]; mCeHR medium
  hemin amount resulting in growth arrest at the L3 stage: ≥ 800 µM
[2]; mCeHR medium, 9 days
  optimum concentration of hemin for growth: 20 µM
